Entries after “also recorded” stand apart in the source; their conditions may differ.
Experiments:
[1] = target: T1, MAO-A (Homo sapiens, UniProt P21397); assay: MAO-Glo luminescent assay, MAO-A inhibition; format: biochemical; settings: for inhibiting the enzymatic activity of MAO-A (result in words): compared among isomyosmine, myosmine, anatabine, anabasine, nornicotine, clorgyline positive control, FIG. 3
T1 construct: purchased
T1 sequence (P21397 1-527): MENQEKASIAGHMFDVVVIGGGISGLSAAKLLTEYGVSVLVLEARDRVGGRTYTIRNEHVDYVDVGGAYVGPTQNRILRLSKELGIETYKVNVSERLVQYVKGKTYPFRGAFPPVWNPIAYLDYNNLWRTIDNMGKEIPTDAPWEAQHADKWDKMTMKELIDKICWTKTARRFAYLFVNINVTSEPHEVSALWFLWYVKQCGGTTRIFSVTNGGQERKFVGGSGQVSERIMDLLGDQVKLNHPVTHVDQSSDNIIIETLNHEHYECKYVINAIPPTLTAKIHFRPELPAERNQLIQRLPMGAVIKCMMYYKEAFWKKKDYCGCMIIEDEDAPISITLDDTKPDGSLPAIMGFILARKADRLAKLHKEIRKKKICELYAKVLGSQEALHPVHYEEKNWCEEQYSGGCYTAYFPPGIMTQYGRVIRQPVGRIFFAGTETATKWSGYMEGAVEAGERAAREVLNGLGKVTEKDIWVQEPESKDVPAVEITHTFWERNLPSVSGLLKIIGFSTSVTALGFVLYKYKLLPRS
From the text: (§1) This example describes experiments for determining monoamine oxidase (MAO) inhibition for isomyosmine and other alkaloids. MAOs are enzymes located on the outer membrane of mitochondria and are involved in the catabolism of monoamine neurotransmitters. There are two well-characterized isoenzymes: MAO-A, which predominantly catabolizes serotonin and norepinephrine, and MAO-B, which preferentially catabolizes benzylamine and phenylethylamine. Dopamine and tyramine are metabolized by both isoforms.
(§2) To detect the activity of MAO, a luminescent method (MAO-Glo Assay kit, from Promega, Cat # V1401) was used. In this method, a MAO substrate (a derivative of beetle luciferin provided in the kit) is mixed with the compound to be tested (in this case, myosmine and control compounds). Then, the MAO enzymes (either A or B, purchased separately) are added to the mixture and incubated with the reaction for 1 hour at room temperature. The MAO enzymes, if not inhibited by the test compound, will convert the substrate into methyl ester luciferin. Finally, a luciferin detection reagent (provided by the kit) is added (20 minutes at room temperature) to stop the MAO reaction and convert methyl ester luciferin into D-luciferin. D-luciferin reacts with luciferase to produce a luminescent signal, which is directly proportional to the D-luciferin concentration and thus the MAO activity: the greater the amount of light produced the higher the activity of MAO. The luminescent signal is measured and recorded using a luminometer.
The following materials were obtained from Toronto Research Chemicals, North York, ON: isomyosmine, catalog # 1821350; myosmine, catalog # M835000; anabasine, catalog # A637175; and nornicotine, catalog # N756995. Anatabine was obtained from Emerson Resources, Norristown, PA.

[2] = Topical administration for wound healing; format: in vivo; settings: e.g. surgical incisions
From the text: A method, not falling within the scope of the claimed subject-matter, of treating a wound is also described herein which comprises administering to an individual in need thereof a pharmaceutical composition containing a therapeutically effective amount of isomyosmine or a pharmaceutically acceptable salt thereof.

[3] = Blood oxygen saturation (SpO2) by pulse oximetry in individuals; format: in vivo, human; settings: seven individuals, one hour after single dose 50-100 mg
From the text: This example illustrates the effect of isomyosmine on normal blood oxygen saturation levels (SpO2). SpO2 refers to peripheral capillary oxygen saturation, an estimate of the amount of oxygen in the blood. More specifically, it is the percentage of oxygenated hemoglobin (hemoglobin containing oxygen) compared to the total amount of hemoglobin in the blood (oxygenated and non-oxygenated hemoglobin). SpO2 can be measured by pulse oximetry, an indirect, non-invasive method. It works by emitting and then absorbing a light wave passing through blood vessels (or capillaries) in the fingertip. A variation of the light wave passing through the finger will give the value of the SpO2 measurement because the degree of oxygen saturation causes variations in the blood's color.

[4] = target: T2, MAO-B (Homo sapiens, UniProt P27338); assay: MAO-Glo luminescent assay, MAO-B inhibition; format: biochemical; settings: compared among isomyosmine, myosmine, anatabine, anabasine, nornicotine; FIG. 4
T2 construct: purchased
T2 sequence (P27338 1-520): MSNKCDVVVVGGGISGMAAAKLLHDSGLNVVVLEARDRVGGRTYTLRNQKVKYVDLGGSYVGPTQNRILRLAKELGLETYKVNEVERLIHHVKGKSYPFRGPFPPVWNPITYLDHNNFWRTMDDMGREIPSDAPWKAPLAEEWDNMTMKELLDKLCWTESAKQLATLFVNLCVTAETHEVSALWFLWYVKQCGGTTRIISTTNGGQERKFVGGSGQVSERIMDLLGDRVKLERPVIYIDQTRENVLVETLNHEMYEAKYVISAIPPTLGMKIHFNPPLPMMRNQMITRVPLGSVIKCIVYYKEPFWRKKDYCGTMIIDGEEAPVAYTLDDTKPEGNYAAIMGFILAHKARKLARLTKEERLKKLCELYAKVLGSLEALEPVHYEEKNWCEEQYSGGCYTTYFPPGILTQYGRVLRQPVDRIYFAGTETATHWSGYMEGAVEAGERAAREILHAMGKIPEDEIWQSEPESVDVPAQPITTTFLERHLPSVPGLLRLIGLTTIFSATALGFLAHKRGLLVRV
From the text: as §1
as §2, with “D-luciferin reacts with luciferase to produce a luminescent signal, which is directly proportional to the D-luciferin concentration and thus the MAO activity: the greater the amount of light produced the higher the activity of MAO.” left out, “luminometer. […]” for “luminometer.”

| Compound | inhibiting the enzymatic activity of MAO-A (result in words) [1] | wound healing (result in words) [2] | inhibiting the enzymatic activity of MAO-A (result in words) ([1]; listed as Isomyosmine) | inhibition at 2000 µM ([1]; read-out: inhibition of MAO-A) [%] | blood oxygenation (result in words) [3] | inhibiting the activity of MAO-B (result in words) [4] |
| --- | --- | --- | --- | --- | --- | --- |
| C#CCN(C)CCCOc1ccc(Cl)cc1Cl [clorgyline, reference compound] | greatly shifted leftward |  |  |  |  |  |
| C1=NC(c2cccnc2)CC1 (stereo not shown) [isomyosmine, 3-(3,4-dihydro-2H-pyrrol-2-yl)-pyridine] | most potent of the five | dramatically improve healing | potent inhibitor | ~50 | significant increase in blood oxygenation | most potent among the five alkaloids tested; also recorded: potent inhibitor |

— EP3687536B1, “METHODS OF TREATING HEMOCHROMATOSIS AND RESPIRATORY DISORDERS” (MYMD PHARMACEUTICALS, INC., priority 2017, dated 2019)
